Test results as given in paper PMC11173508, “Pharmacokinetics and Tissue Distribution of Itampolin A following Intragastric and Intravenous Administration in Rats Using Ultra-High-Performance Liquid Chromatography–Tandem Mass Spectrometry” (Molecules, 2024).

Assay: Stability of itampolin A in biological samples under different storage conditions
Format: physicochemical, rat
Settings: for Stability, Short-Term (at Room Temperature for 4 h) / Stability, Three Freeze–Thaw Cycles / Stability, Autosampler 4 °C for 24 h / Stability, Long-Term (at −80 °C for 30 Days): n = 5, in %
Experimental: The stability of itampolin A was investigated by analyzing five replicates of the samples at three QC levels (3, 40, and 1280 ng/mL) under different storage conditions: (1) 4 h exposure at room temperature, (2) 24 h storage in the autosampler at 4 °C, (3) three freeze–thaw cycles, and (4) storage at −80 °C for 30 days. The samples were considered stable if the average percentage concentration deviation was within 15% of the actual value.

- Stability, Short-Term (at Room Temperature for 4 h) (liver, spiked 3 ng/mL): 98.2 ± 7.5
- Stability, Three Freeze–Thaw Cycles (liver, spiked 3 ng/mL): 103.3 ± 4.7
- Stability, Autosampler 4 °C for 24 h (liver, spiked 40 ng/mL): 98.8 ± 4.8
- Stability, Long-Term (at −80 °C for 30 Days) (liver, spiked 40 ng/mL): 87.1 ± 6.8
- Stability, Short-Term (at Room Temperature for 4 h) (liver, spiked 40 ng/mL): 93.5 ± 2.5
- Stability, Three Freeze–Thaw Cycles (liver, spiked 40 ng/mL): 96.4 ± 8.1
- Stability, Autosampler 4 °C for 24 h (liver, spiked 1280 ng/mL): 113.6 ± 4.2
- Stability, Long-Term (at −80 °C for 30 Days) (liver, spiked 1280 ng/mL): 97.9 ± 5.2
- Stability, Short-Term (at Room Temperature for 4 h) (liver, spiked 1280 ng/mL): 102.9 ± 6.5
- Stability, Three Freeze–Thaw Cycles (liver, spiked 1280 ng/mL): 95.1 ± 9.2
- Stability, Autosampler 4 °C for 24 h (lung, spiked 3 ng/mL): 102.5 ± 9.3
- Stability, Long-Term (at −80 °C for 30 Days) (lung, spiked 3 ng/mL): 95.6 ± 4.9
- Stability, Short-Term (at Room Temperature for 4 h) (lung, spiked 3 ng/mL): 108.7 ± 5.1
- Stability, Three Freeze–Thaw Cycles (lung, spiked 3 ng/mL): 95.9 ± 7.2
- Stability, Autosampler 4 °C for 24 h (lung, spiked 40 ng/mL): 99.3 ± 6.9
- Stability, Long-Term (at −80 °C for 30 Days) (lung, spiked 40 ng/mL): 106.7 ± 8.8
- Stability, Short-Term (at Room Temperature for 4 h) (lung, spiked 40 ng/mL): 103.1 ± 3.3
- Stability, Three Freeze–Thaw Cycles (lung, spiked 40 ng/mL): 86.0 ± 4.2
- Stability, Autosampler 4 °C for 24 h (lung, spiked 1280 ng/mL): 98.5 ±3.1
- Stability, Long-Term (at −80 °C for 30 Days) (lung, spiked 1280 ng/mL): 96.4 ± 4.8
- Stability, Short-Term (at Room Temperature for 4 h) (lung, spiked 1280 ng/mL): 101.2 ± 2.9
- Stability, Three Freeze–Thaw Cycles (lung, spiked 1280 ng/mL): 91.4 ± 5.9
- Stability, Autosampler 4 °C for 24 h (plasma, spiked 3 ng/mL): 97.3 ± 5.5
- Stability, Long-Term (at −80 °C for 30 Days) (plasma, spiked 3 ng/mL): 90.5 ± 6.7
- Stability, Short-Term (at Room Temperature for 4 h) (plasma, spiked 3 ng/mL): 103.9 ± 8.0
- Stability, Three Freeze–Thaw Cycles (plasma, spiked 3 ng/mL): 106.8 ± 8.8
- Stability, Autosampler 4 °C for 24 h (plasma, spiked 40 ng/mL): 96.6 ± 6.3
- Stability, Long-Term (at −80 °C for 30 Days) (plasma, spiked 40 ng/mL): 93.6 ± 8.2
- Stability, Short-Term (at Room Temperature for 4 h) (plasma, spiked 40 ng/mL): 100.1 ± 4.1
- Stability, Three Freeze–Thaw Cycles (plasma, spiked 40 ng/mL): 95.3 ± 8.3
- Stability, Autosampler 4 °C for 24 h (plasma, spiked 1280 ng/mL): 98.3 ± 2.9
- Stability, Long-Term (at −80 °C for 30 Days) (plasma, spiked 1280 ng/mL): 95.8 ± 8.4
- Stability, Short-Term (at Room Temperature for 4 h) (plasma, spiked 1280 ng/mL): 97.8 ± 4.1
- Stability, Three Freeze–Thaw Cycles (plasma, spiked 1280 ng/mL): 110.6 ± 5.6
- stability during processing procedures (room temperature for 4 h and autosampler for 24 h, deviation in concentration within ±15% from nominal values): stable
- Stability, Autosampler 4 °C for 24 h (spleen, spiked 3 ng/mL): 103.8 ± 8.5
- Stability, Long-Term (at −80 °C for 30 Days) (spleen, spiked 3 ng/mL): 89.5 ± 8.9
- Stability, Short-Term (at Room Temperature for 4 h) (spleen, spiked 3 ng/mL): 96.2 ± 2.2
- Stability, Three Freeze–Thaw Cycles (spleen, spiked 3 ng/mL): 98.4 ± 6.6
- Stability, Autosampler 4 °C for 24 h (spleen, spiked 40 ng/mL): 105.8 ± 3.6
- Stability, Long-Term (at −80 °C for 30 Days) (spleen, spiked 40 ng/mL): 102.9 ± 8.7
- Stability, Short-Term (at Room Temperature for 4 h) (spleen, spiked 40 ng/mL): 100.6 ± 3.8
- Stability, Three Freeze–Thaw Cycles (spleen, spiked 40 ng/mL): 112.2 ± 6.5
- Stability, Autosampler 4 °C for 24 h (spleen, spiked 1280 ng/mL): 101.2 ± 4.2
- Stability, Long-Term (at −80 °C for 30 Days) (spleen, spiked 1280 ng/mL): 104.1 ± 5.2
- Stability, Short-Term (at Room Temperature for 4 h) (spleen, spiked 1280 ng/mL): 98.4 ± 2.1
- Stability, Three Freeze–Thaw Cycles (spleen, spiked 1280 ng/mL): 92.4 ± 7.8
- Stability, Autosampler 4 °C for 24 h (stomach, spiked 3 ng/mL): 87.5 ± 3.3
- Stability, Long-Term (at −80 °C for 30 Days) (stomach, spiked 3 ng/mL): 92.6 ± 6.5
- Stability, Short-Term (at Room Temperature for 4 h) (stomach, spiked 3 ng/mL): 100.6 ± 7.6
- Stability, Three Freeze–Thaw Cycles (stomach, spiked 3 ng/mL): 103.2 ± 4.2
- Stability, Autosampler 4 °C for 24 h (stomach, spiked 40 ng/mL): 104.8 ± 7.8
- Stability, Long-Term (at −80 °C for 30 Days) (stomach, spiked 40 ng/mL): 95.6 ± 5.8
- Stability, Short-Term (at Room Temperature for 4 h) (stomach, spiked 40 ng/mL): 99.0 ± 4.3
- Stability, Three Freeze–Thaw Cycles (stomach, spiked 40 ng/mL): 114.8 ± 6.6
- Stability, Autosampler 4 °C for 24 h (stomach, spiked 1280 ng/mL): 98.5 ± 2.6
- Stability, Long-Term (at −80 °C for 30 Days) (stomach, spiked 1280 ng/mL): 94.1 ± 6.1
- Stability, Short-Term (at Room Temperature for 4 h) (stomach, spiked 1280 ng/mL): 99.1 ± 4.2
- Stability, Three Freeze–Thaw Cycles (stomach, spiked 1280 ng/mL): 97.7 ± 4.7
- effect of storage on quantification (three freeze–thaw cycles and long-term storage (−80 °C for 30 days)): no effect on the quantification
Compound: COc1c(Br)cc(C[C@H](NC(=O)Cc2ccc(OCCCNC(C)=O)cc2)C(=O)NCCc2cc(Br)c(O)c(Br)c2)cc1Br [itampolin A, Itampolin A]
